We go through 35 compounds from US5688787A, “Substituted β-lactam compounds useful as hypochlesterolemic agents and processes for the preparation thereof” (priority 1996, dated 1997).

The structures appear in SMILES notation. Read-outs that look alike come from different tables or passages of the source.

The subject of the experiment is Hyperlipidemic Hamster. As to the kind of experiment: In Vivo Assay of Hypolipidemic Agents Using the Hyperlipidemic Hamster. As to conditions: for change in vivo at 50 mg/kg / change in vivo at 3 mg/kg / change in vivo at 5 mg/kg / change in vivo at 10 mg/kg: Mesocricetus auratus, po, 168 h; for change in vivo at 3 mg/kg: 3 mg/kg once daily oral; for change in vivo at 5 mg/kg: 5 mg/kg once daily oral; for change in vivo at 10 mg/kg: 10 mg/kg once daily oral. The procedure:
In Vivo Assay of Hypolipidemic Agents Using the Hyperlipidemic Hamster
Hamsters are separated into groups of six and given a controlled cholesterol diet (Purina Chow #5001 containing 0.5% cholesterol) for seven days. Diet consumption is monitored to determine dietary cholesterol exposure in the face of test compounds. The animals are dosed with the test compound once daily beginning with the initiation of diet. Dosing is by oral gavage of 0.2mL of corn oil alone (control group) or solution (or suspension) of test compound in corn oil. All animals roodbund or in poor physical condition are euthanized. After seven days, the animals are anesthetized by IM injection of ketamine and sacrificed by decapitation. Blood is collected into vacutainer tubes containing EDTA for plasma lipid analysis and the liver excised for tissue lipid analysis. Data is reported as percent reduction of lipid versus control.
Using the test procedures described above, the following in vitro and in vivo data were obtained for the preferred compounds, which are referred to in the following table by the corresponding example numbers. For the in vitro ACAT data, negative percent inhibition denotes apparent stimulation,while positive numbers denote inhibition. For the in vivo results, data is reported as percent change versus control, therefore, negative numbers indicate a positive lipid-lowering effect.

Setting [1] is: 50 mg/kg once daily oral, 7 days, percent change versus control, negative = lowering, read-out: % Reduction (in vivo) Cholest. Esters.
The mark [2] stands for this setting: 50 mg/kg once daily oral, 7 days, percent change versus control, negative = lowering, read-out: % Reduction (in vivo) Serum Cholest.
[3] abbreviates: 7 days, percent change versus control, negative = lowering, read-out: % Reduction (in vivo) Cholest. Esters.
[4] abbreviates: 7 days, percent change versus control, negative = lowering, read-out: % Reduction (in vivo) Serum Cholest.
The mark [5] stands for this setting: 50 mg/kg once daily oral, 7 days, percent change versus control, negative = lowering.

For `COc1ccc([C@@H]2[C@@H](CCCc3ccccc3)C(=O)N2c2ccc(I)cc2)cc1` (relative stereo) [Example 7AA], the change in vivo at 50 mg/kg by setting is: under setting [1], -42%; under setting [2], -10%.

As for `COc1ccc([C@@H]2[C@H](NC(=O)COc3ccccc3)C(=O)N2c2ccccc2)cc1` (relative stereo) [Example 12B], the change in vivo at 50 mg/kg was -26% under setting [1] and 0% under setting [2].

With `COc1ccc([C@@H]2[C@@H](CCCc3ccccc3)C(=O)N2c2ccc(OC(F)(F)F)cc2)cc1` (relative stereo) [Example 1AN], the change in vivo at 50 mg/kg is -85% under setting [1] and -34% under setting [2].

For the compound `COc1ccc(N2C(=O)[C@H](CCCc3ccccc3)[C@H]2c2ccc(OC(C)C)cc2)cc1` (relative stereo) [Example 7M], the change in vivo at 50 mg/kg by setting is: under setting [1], -94%; under setting [2], -38%.

In the case of `COc1ccc(NC[C@H]2[C@@H](CCCc3ccccc3)C(=O)N2c2ccc(OC)cc2)cc1` (relative stereo) [Example 19D], the change in vivo at 50 mg/kg reads like this: under setting [1], -18%; under setting [2], -15%.

Regarding `COc1ccc([C@@H]2[C@@H](CCCc3ccccc3)C(=O)N2c2ccc(OC)cc2)cc1` [Example 9, (3R,4S)-1,4-bis-(4-methoxyphenyl)-3-(3-phenylpropyl)-2-azetidinone], under setting [3], the change in vivo at 3 mg/kg is -68%, the change in vivo at 5 mg/kg is -66% and the change in vivo at 10 mg/kg was -93%. Moreover, under setting [4], the change in vivo at 3 mg/kg is -25%, the change in vivo at 5 mg/kg was -21.5% and the change in vivo at 10 mg/kg is -43%.

In the case of `COc1ccc([C@@H]2[C@@H](CCCc3ccccc3)C(=O)N2c2ccc(OC)cc2)cc1` (relative stereo) [Example 5W], under setting [5], the “% Reduction (in vivo) Cholest. Esters” value was -19% and the “% Reduction (in vivo) Serum Cholest.” value is 0%.

As for `COc1ccc([C@@H]2[C@@H](CCCc3ccccc3)C(=O)N2c2ccccc2)cn1` (relative stereo) [Example 7O], the change in vivo at 50 mg/kg was -20% under setting [1] and -14% under setting [2].

As to `COc1ccc([C@H]2[C@@H](CCCc3ccccc3)C(=O)N2c2ccc(O[Si](C)(C)C(C)(C)C)cc2)cc1` (relative stereo) [Example 1CB], the change in vivo at 50 mg/kg reads like this: (read-out: % Reduction (in vivo) Cholest. Esters) 0%; (read-out: % Reduction (in vivo) Serum Cholest.) 0%.

Consider `COc1ccc(N2C(=O)[C@H](CCCc3ccccc3)[C@@H]2CN2CCOCC2)cc1` (relative stereo) [Example 19E], for which the change in vivo at 50 mg/kg by setting is: under setting [1], -30%; under setting [2], -19%.

Turning to `COc1ccc(N2C(=O)[C@H](CCCc3ccccc3)[C@@H]2c2ccc(OC(C)C)cc2)cc1` (relative stereo) [Example 1AY], the change in vivo at 50 mg/kg by setting is: under setting [1], -78%; under setting [2], -28%.

In the case of `COc1ccc([C@@H]2[C@@H](CCCc3ccccc3)C(=O)N2c2cccc(OC)c2)cc1` (relative stereo) [Example 5E], the change in vivo at 50 mg/kg runs as follows: under setting [1], -91%; under setting [2], -38%.

For the compound `CCCCCCCCCC[C@H]1C(=O)N(c2ccc(OC)cc2)[C@@H]1c1ccc(OC)cc1` (relative stereo) [Example 7AG], the change in vivo at 50 mg/kg runs as follows: under setting [1], -15%; under setting [2], 0%.

On to `COc1ccc([C@@H]2[C@@H](CCOc3ccc(F)cc3)C(=O)N2c2ccc(OC)cc2)cc1` (relative stereo) [Example 5AA], for which the change in vivo at 50 mg/kg is -93% under setting [1] and -53% under setting [2].

In the case of `COC(=O)CCC(=O)Oc1ccc(C2C(CCCc3ccccc3)C(=O)N2c2ccc(OC)cc2)cc1` (centres unmarked) [Example 34], the change in vivo at 50 mg/kg reads like this: under setting [1], -94%; under setting [2], -39%.

Take `COc1ccc(N2C(=O)[C@H](CCCc3ccccc3)[C@@H]2c2cc3ccccc3o2)cc1` (relative stereo) [Example 1BZ]: the change in vivo at 50 mg/kg by setting is: under setting [1], 0%; under setting [2], -9%.

On to `COc1ccc(OCC[C@H]2C(=O)N(c3ccccc3)[C@@H]2c2ccc(OC)cc2)cc1` (relative stereo) [Example 7AP], for which the change in vivo at 50 mg/kg is, setting by setting: under setting [1], -82%; under setting [2], -24%.

`COc1ccc([C@@H]2[C@H](Cc3ccc4ccccc4c3)C(=O)N2c2ccccc2)cc1` (relative stereo) [Example 7AQ]: the change in vivo at 50 mg/kg is, setting by setting: under setting [1], -91%; under setting [2], -52%.

As for `CCOc1ccc([C@H]2[C@@H](CCCc3ccccc3)C(=O)N2c2ccccc2)cc1` (relative stereo) [Example 1BY], the change in vivo at 50 mg/kg under setting [1] is -72% and the change in vivo at 50 mg/kg under setting [2] was -18%.

Take `COc1ccc(N2C(=O)[C@@H](CCCc3ccccc3)[C@@H]2c2ccc(NS(C)(=O)=O)cc2)cc1` (relative stereo) [Example 25C]: the change in vivo at 50 mg/kg under setting [1] was -46% and the change in vivo at 50 mg/kg under setting [2] is -8%.

As to `CCCOc1ccc([C@@H]2[C@@H](CCCc3ccccc3)C(=O)N2c2ccc(OC)cc2)cc1` (relative stereo) [Example 7P], the change in vivo at 50 mg/kg is -95% under setting [1] and -40% under setting [2].

For the compound `COc1ccc(N2C(=O)[C@H](CCCc3ccccc3)[C@H]2c2ccc(N(S(C)(=O)=O)S(C)(=O)=O)cc2)cc1` (relative stereo) [Example 25A], the change in vivo at 50 mg/kg reads like this: under setting [1], 0%; under setting [2], -13%.

As for `C=CCOc1ccc([C@@H]2[C@@H](CCCc3ccccc3)C(=O)N2c2ccc(OC)cc2)cc1` (relative stereo) [Example 5U], the change in vivo at 50 mg/kg runs as follows: under setting [1], -86%; under setting [2], -48%.

In the case of `COc1ccc(N2C(=O)[C@H](CCCc3ccccc3)[C@@H]2c2cn(C)c3ccccc23)cc1` (relative stereo) [Example 1BW], the change in vivo at 50 mg/kg was -29% under setting [1] and -9% under setting [2].

For the compound `CCOC(=O)[C@@H]1[C@H](CCCc2ccccc2)C(=O)N1c1ccc(OC)cc1` (relative stereo) [Example 7N], the change in vivo at 50 mg/kg reads like this: under setting [1], 0%; under setting [2], -11%.

Turning to `C=CCOc1ccc([C@H]2[C@@H](CCCc3ccccc3)C(=O)N2c2ccc(OC)cc2)cc1` (relative stereo) [Example 1BU], the change in vivo at 50 mg/kg by setting is: under setting [1], -95%; under setting [2], -39%.

As for `COc1ccc([C@@H]2[C@@H](Cc3ccc4ccccc4c3)C(=O)N2c2ccccc2)cc1` (relative stereo) [Example 7AO], the change in vivo at 50 mg/kg reads like this: under setting [1], -90%; under setting [2], -41%.

Take `COc1ccc([C@@H]2[C@H](NCC(c3ccccc3)c3ccccc3)C(=O)N2c2ccccc2)cc1` (relative stereo) [Example 14B]: the change in vivo at 50 mg/kg under setting [1] is 0% and the change in vivo at 50 mg/kg under setting [2] is 0%.

Regarding `COc1ccc([C@@H]2[C@H](NC(=O)N(C)c3ccccc3)C(=O)N2c2ccccc2)cc1` (relative stereo) [Example 12D], the change in vivo at 50 mg/kg runs as follows: under setting [1], 0%; under setting [2], 0%.

As for `COc1ccc(N2C(=O)[C@H](CCCc3ccccc3)[C@H]2c2ccc(OC)c(F)c2)cc1` (relative stereo) [Example 7S], the change in vivo at 50 mg/kg under setting [1] is -82% and the change in vivo at 50 mg/kg under setting [2] is -27%.

As for `COc1ccc([C@@H]2[C@@H](/C=C/Cc3ccccc3)C(=O)N2c2ccc(OC)cc2)cc1` (relative stereo) [Example 7AJ], the change in vivo at 50 mg/kg runs as follows: under setting [1], -18%; under setting [2], 0%.

In the case of `CCC(=O)N[C@@H]1C(=O)N(c2ccccc2)[C@@H]1c1ccc(OC)cc1` (relative stereo) [Example 12A], the change in vivo at 50 mg/kg under setting [1] is -39% and the change in vivo at 50 mg/kg under setting [2] was -14%.

For `COc1ccc(C(=O)[C@@H]2[C@H](CCCc3ccccc3)C(=O)N2c2ccc(OC)cc2)cc1` (relative stereo) [Example 7W], the change in vivo at 50 mg/kg was found to be 0% under setting [1] and 12% under setting [2].

`COc1ccc([C@@H]2[C@H](N)C(=O)N2c2ccccc2)cc1` (relative stereo) [Example 11]: the change in vivo at 50 mg/kg is, setting by setting: under setting [1], 0%; under setting [2], -8%.

As for `COc1ccc([C@@H]2[C@@H](CCCc3ccccc3)C(=O)N2c2cccc([N+](=O)[O-])c2)cc1` (relative stereo) [Example 7B], the change in vivo at 50 mg/kg was -45% under setting [1] and -13% under setting [2].
